Results taken from patent publication US4083994A, “Choleretics” (Hisamitsu Pharmaceutical Co., Inc., priority 1975, dated 1978).

Columns and labels:
[1] = test system: sleeping time induced by hexobarbital; experiment: Effects on the sleeping time induced by hexobarbital (metabolism function of the liver); format: in vivo, male rats of Wistar strain; details: rats, 250 mg/kg oral once daily for a week; hexobarbital sodium 100 mg/kg i.p.; control 17.1 ± 0.9
Protocol: About 500 mg of the test drugs were weighed accurately and suspended in 2 ml of 5% gum arabic aqueous solution. Ten male rats of Wistar strain were used per group and given orally the test drugs prepared above in a volume of 0.1 ml/100 g body weight (equivalent to 250 mg/kg), once daily (at 8.30-9.00 a.m.), for a week. The animals were fasted overnight after the last administration of the test drugs. Subsequently, 10% hexobarbital sodium aqueous solution was injected intraperitoneally in a volume of 0.1 ml (equivalent to 100 mg/kg) and the sleeping time was measured. The animals were regarded as sleeping when the loss of righting reflex persist for more than 30 seconds.

[2] = Acute toxicity test in rats; design: species or system male rats of Wistar strain; details: rat, in vivo, oral, parentheses: 95% confidence limit
Protocol: (§1) The test drugs were suspended in 5% gum arabic aqueous solution to make 50 mg/ml, and given orally male mice of ddY strain weighing 18-22 g and male rats of Wistar strain weighing 95-120 g. The LD50 values were calculated from the mortality of the animals that ensued during the 72 hours following the drug administration

[3] = test system: bile secretion; experiment: Bile secretion test in rats; format: in vivo, male Wistar rats; details: oral; for Bile volume secreted after administration: rat, volume in 1 h before administration = 100%; for Volume of bile secreted relative to one hour before administration: rats
Protocol: Male Wistar rats weighing 200-210 g were fasted overnight and laparotomized under urethane anesthesia(Subcutaneous injection at a dose of 1.5 g/kg). A polyethylene tube was inserted into the common bile duct. The bile was collected for one hour from 30 minutes after the operation. Subsequently, the animals were given orally the test drugs, each 50 mg of which was suspended in 1 ml of 5% gum arabic aqueous solution. The bile was collected for 5 hours after the drug administration. The volume of the bile secreted at hourly intervals after the drug administration was expressed in %, defining the volume secreted for one hour before the drug administration as 100%, as shown in Table 1.
About 500 mg of p-menth-1-ene-8,9-diol were weighed accurately, and suspended in 10 ml of 5% gum arabic aqueous solution. […] Male rats of Wistar strain weighing 200 g were fasted overnight, anesthetized by subcutanous injection of 0.3 g of urethane and laparotomized. A polyethylene tube was inserted into the common bile duct. The bile was collected for one hour from 30 minutes after the operation. […]
About 500 mg of 9-acetoxy-p-menth-1-en-8-ol was weighed accurately and suspended in 10ml of 5% gum arabic aqueous solution. […] Male rats of Wistar strain weighing about 210 g were fasted overnight and anesthetized by subcutaneous injection of 0.32 g of urethane and then laparotomized. A polyethylene tube was inserted into the common bile duct, and the bile secreted through the duct was collected for one hour from 30 minutes after the operation. Subsequently, the choleretic of the present invention was administered orally in a volume of 1.05 ml (250 mg/kg).

[4] = test system: bile secretion; experiment: Bile secretion test in dogs; format: in vivo, male mongrel dogs; details: dog, into duodenum, volume in 1 h before administration = 100%
Protocol: Male mongrel dogs weighing approximately 8 kg were anesthetized with intravenous injection of […] of pentobarbital and further with subcutaneous injection of urethane at a dose of 1.0 g/kg and laparotomized. One canula was inserted into the common bile duct and directed to the liver for collection of the bile, and the other canula was inserted into the duodenum for the drug administration. The cholecystic duct was ligated and the gallbladder bile was aspirated with an injection syringe. The operation was finished by suture of the peritoneum. The bile was collected for one hour from 30 minutes after the operation. The animals were given the test drugs, each 50 mg of which was suspended in 1 ml of 5% gum arabic aqueous solution, through the canula for the drug administration. The bile was collected at hourly intervals for 6 hours after the drug administration. Defining the volume of the bile secreted for one hour before the drug administration as 100%, the volume secreted at hourly intervals after the drug administration was expressed in %, as shown in Table 2.
The mean volume secreted for one hour before the drug administration was 1798 μl.
This suspension was used as a choleretic of the present invention. A male mongrel dog weighing 8.8 kg was fasted overnight and anesthetized by subcutaneous injection of 1.0 mg/kg of urethane and laparotomized. One canula was inserted into the common bile duct and directed to the liver for collection of the bile, and the other canula was also inserted into the duodenum for the drug administration. Subsequently, the cholecystic duct was ligated and the gallbladder bile was aspirated with an injection syringe. The operation was finished after suturing the peritoneum. The bile was collected for one hour from 30 minutes after the operation, and subsequently, 44 ml of the test drug prepared above (250 mg/kg) was given through the canula for the drug administration. The volume of the bile secreted for the first, second and third one hour after the drug administration were 2.2, 2.1 and 1.9 times larger, respectively, than that secreted for one hour before the drug administration.
About 2.5 g of 9-propionyloxy-p-menth-1-en-8-ol was weighed accurately and suspended in 50 ml of 5% gum arabic aqueous solution. This suspension was used as a choleretic of the present invention. A male mongrel dog weighing 7.6 kg was fasted overnight and anesthetized by subcutaneous injection of 1.0 mg/kg of urethane and then laparotomized. One canula was inserted into the common bile duct and directed to the liver for collection of the bile, and the other canula into the duodenum for the drug administration. Subsequently, the cholecystic duct was ligated and the gallbladder bile was aspirated with an injection syringe. The operation was finished by suturing the peritoneum. The bile was collected for one hour from 30 minutes after the operation, and 50 ml (330 mg/kg) of the test drug prepared above was administered through the canula for the drug administration. The volume of the bile secreted for the first, second and third one hour after the drug administration was 3.2, 5.0 and 4.7 times larger, respectively, than that secreted for one hour before the drug administration.

[5] = Acute toxicity test in mice; details: mouse, in vivo, oral, parentheses: 95% confidence limit
Protocol: as §1

SMILES: CC(=O)OCC(C)(O)C1CC=C(C)CC1 (stereo not shown) [9-Acetoxy-p-menth-1-en-8-ol, 9-acetoxy-p-menth-1-en-8-ol]
- Sleeping time [1]: 18.1 ± 1.5 min
- LD50 at 72 h [2]: 8300 mg/kg
- Bile volume secreted after administration ([3]; 100 mg/kg, 0-1 hr): 125%
- Bile volume secreted after administration ([3]; 100 mg/kg, 1-2 hr): 109%
- Bile volume secreted after administration ([3]; 100 mg/kg, 2-3 hr): 96%
- Bile volume secreted after administration ([3]; 100 mg/kg, 3-4 hr): 82%
- Bile volume secreted after administration ([3]; 100 mg/kg, 4-5 hr): 75%
- Bile volume secreted after administration ([3]; 310 mg/kg, 0-1 hr): 196%
- Bile volume secreted after administration ([3]; 310 mg/kg, 1-2 hr): 172%
- Bile volume secreted after administration ([3]; 310 mg/kg, 2-3 hr): 145%
- Bile volume secreted after administration ([3]; 310 mg/kg, 3-4 hr): 124%
- Bile volume secreted after administration ([3]; 310 mg/kg, 4-5 hr): 114%
- Bile volume secreted after administration ([3]; 930 mg/kg, 0-1 hr): 218%
- Bile volume secreted after administration ([3]; 930 mg/kg, 1-2 hr): 203%
- Bile volume secreted after administration ([3]; 930 mg/kg, 2-3 hr): 172%
- Bile volume secreted after administration ([3]; 930 mg/kg, 3-4 hr): 154%
- Bile volume secreted after administration ([3]; 930 mg/kg, 4-5 hr): 130%
- Volume of bile secreted relative to one hour before administration ([3]; 250 mg/kg, first hour): 1.9 times
- Volume of bile secreted relative to one hour before administration ([3]; 250 mg/kg, second hour): 1.7 times
- Volume of bile secreted relative to one hour before administration ([3]; 250 mg/kg, third hour): 1.4 times
- Bile volume secreted after administration ([4]; 310 mg/kg, 0-1 hr): 395%
- Bile volume secreted after administration ([4]; 310 mg/kg, 1-2 hr): 457%
- Bile volume secreted after administration ([4]; 310 mg/kg, 2-3 hr): 534%
- Bile volume secreted after administration ([4]; 310 mg/kg, 3-4 hr): 464%
- Bile volume secreted after administration ([4]; 310 mg/kg, 4-5 hr): 277%
- Bile volume secreted after administration ([4]; 310 mg/kg, 5-6 hr): 157%
- LD50 at 72 h [5]: 1000 to 2000 mg/kg

SMILES: CC1=CCC(C(C)(O)CO)CC1 (stereo not shown) [p-Menth-1-ene-8,9-diol, p-menth-1-ene-8,9-diol]
- Sleeping time [1]: 17.8 ± 0.3 min
- Bile volume secreted after administration ([3]; 80 mg/kg, 0-1 hr): 155%
- Bile volume secreted after administration ([3]; 80 mg/kg, 1-2 hr): 118%
- Bile volume secreted after administration ([3]; 80 mg/kg, 2-3 hr): 101%
- Bile volume secreted after administration ([3]; 80 mg/kg, 3-4 hr): 93%
- Bile volume secreted after administration ([3]; 80 mg/kg, 4-5 hr): 85%
- Bile volume secreted after administration ([3]; 250 mg/kg, 0-1 hr): 213%
- Bile volume secreted after administration ([3]; 250 mg/kg, 1-2 hr): 170%
- Bile volume secreted after administration ([3]; 250 mg/kg, 2-3 hr): 122%
- Bile volume secreted after administration ([3]; 250 mg/kg, 3-4 hr): 99%
- Bile volume secreted after administration ([3]; 250 mg/kg, 4-5 hr): 89%
- Bile volume secreted after administration ([3]; 750 mg/kg, 0-1 hr): 218%
- Bile volume secreted after administration ([3]; 750 mg/kg, 1-2 hr): 199%
- Bile volume secreted after administration ([3]; 750 mg/kg, 2-3 hr): 175%
- Bile volume secreted after administration ([3]; 750 mg/kg, 3-4 hr): 153%
- Bile volume secreted after administration ([3]; 750 mg/kg, 4-5 hr): 139%
- Volume of bile secreted relative to one hour before administration ([3]; 250 mg/kg, first hour): 2.1 times
- Volume of bile secreted relative to one hour before administration ([3]; 250 mg/kg, second hour): 1.7 times
- Volume of bile secreted relative to one hour before administration ([3]; 250 mg/kg, third hour): 1.2 times
- Bile volume secreted after administration ([4]; 250 mg/kg, 0-1 hr): 176%
- Bile volume secreted after administration ([4]; 250 mg/kg, 1-2 hr): 168%
- Bile volume secreted after administration ([4]; 250 mg/kg, 2-3 hr): 122%
- Bile volume secreted after administration ([4]; 250 mg/kg, 3-4 hr): 65%
- Bile volume secreted after administration ([4]; 250 mg/kg, 4-5 hr): 41%
- LD50 at 72 h [5]: 1800 mg/kg
